This is an account of results in US9163013B2, “Use of 1H-indazole-3-carboxamide compounds as glycogen synthase kinase 3 beta inhibitors” (AZIENDE CHIMICHE RIUNITE ANGELINI FRANCESCO A.C.R.A.F. …, priority 2012, dated 2015).

In test [1] the target is T1, human GSK-3β (Homo sapiens (Human), UniProt P49841). The test is described as follows: Activity on human GSK-3β, substrate phosphorylation measured by LANCE technology. The test is classed as biochemical. The conditions noted are these: LANCE phosphorylation assay; five concentrations 100 μM to 10 nM, duplicate; read-out: IC50. As for the experimental part:
Activity on human GSK-3β was assessed using the following methods (according to Meijer et al., Chem. Biol., 2003-10:1255-1266).
In a first screening assay, compounds were tested in duplicate at a concentration of 10 μM.
Human recombinant enzyme GSK-3β was incubated for 90 minutes at 22° C. in the presence of compounds or vehicle in a reaction buffer containing ATP plus 100 nM unphosphorylated specific substrate peptide (Ulight-[…]-amide). Substrate phosphorylation was measured by LANCE technology (PerkinElmer, Conn., USA).
The results, reported in the following Table 4, are expressed as a percent of inhibition of control specific activity obtained in the presence of the test compounds (as % inhibition at 10 μm).
(§1) In a second assay, the same compounds were assayed at five concentrations ranging from 100 μM to 10 nM with ten-fold dilutions in duplicate. Compounds 1 to 7, 9, 11 and 13 to 26 were tested using the same first assay, compounds 8, 10, 12, and 27 to 31 were tested in another assay based on the binding and displacement of AlexaFluor® 647 labeled, ATP-competitive Kinase inhibitor scaffold using LanthaScreen™ TR-FRET technology Eu Kinase assay packet according to manufacturer's instruction (Life Technologies, Italy).
(§2) The IC50 values (concentration causing a half maximal inhibition of control specific activity), reported in table 4, were determined by non-linear regression analysis of the inhibition curves generated with mean replicate values using Hill equation curve fitting.
Background: In TR-FRET formats the signal depends on donor and acceptor labels being close together.

A further test addresses CDC2/CDK1 (h) (cycB) (Homo sapiens (Human), UniProt P06493). The test is described as follows: Kinase selectivity panel. The conditions noted are these: duplicate, read-out: % inhibition of control values, CDC2/CDK1 (h) (cycB). The test is classed as biochemical. As for the experimental part:
(§3) (a) Compound 1 was tested against a panel of 60 kinases in order to assess its selectivity. The assays were chosen taking into consideration the diversity of assay families.
(§4) Human recombinant kinases were incubated in the presence of specific peptide substrates plus ATP for different times (10, 15, 30, 60 or 90 minutes) at 22° C. Phosphorylated substrate was detected by LANCE or HTRF technology (CISBIO, MA, USA).
(§5) Compound 1 was tested at 10 μM in duplicate.
(§6) The results are expressed as a percent of inhibition of control specific activity obtained in the presence of the test compound 1 and are reported in the following Table 5.
(§7) (b) Compounds 7, 12, 21 and 24 were tested against the same panel of 60 kinases under the same conditions described above for compound 1.
(§8) The results are expressed as a percent of inhibition of control specific activity obtained in the presence of the test compounds and are reported in the following Table 6.

A further test deals with CDK5/p35 (h) (Homo sapiens (Human), UniProt Q00535). The test is described as follows: Kinase selectivity panel. The format is biochemical. The conditions noted are these: duplicate, read-out: % inhibition of control values, CDK5/p35 (h). As for the experimental part: as §3, §4, §5, §6, §7, §8
The target in the next test is ERK1 (h) (Homo sapiens (Human), UniProt P27361). The test is described as follows: Kinase selectivity panel. The format is biochemical. The settings on record: duplicate, read-out: % inhibition of control values, ERK1 (h). As for the experimental part:
as §3, §4, §5, §6, §7, §8

The target of another test is ERK2 (h) (P42mapk) (Homo sapiens (Human), UniProt P28482). The test is described as follows: Kinase selectivity panel. The format is biochemical. The settings on record: duplicate, read-out: % inhibition of control values, ERK2 (h) (P42mapk). As for the experimental part: as §3, §4, §5, §6, §7, §8
Another test deals with GSK3beta (h) (Homo sapiens (Human), UniProt P49841). The test is described as follows: Kinase selectivity panel. The test is classed as biochemical. The settings on record: for inhibition at 10 µM: duplicate, read-out: % inhibition of control values, GSK3beta (h); for Selectivity for GSK-3β compared to the other kinases of the panel: panel of 60 kinases, 10 μM. As for the experimental part:
as §3, §4, §5, §6, §7, §8

Another test deals with HGK (h) (MAP4K4) (Homo sapiens (Human), UniProt O95819). The test is described as follows: Kinase selectivity panel. The test is classed as biochemical. The settings on record: duplicate, read-out: % inhibition of control values, HGK (h) (MAP4K4). As for the experimental part: as §3, §4, §5, §6, §7, §8
The target of another test is IRK (h) (InsR) (Homo sapiens (Human), UniProt P06213). The test is described as follows: Kinase selectivity panel. The test is classed as biochemical. The conditions noted are these: duplicate, read-out: % inhibition of control values, IRK (h) (InsR). On the procedure:
as §3, §4, §5, §6, §7, §8

The next test has as its target MEK1/MAP2K1 (h) (Homo sapiens (Human), UniProt Q02750). The test is described as follows: Kinase selectivity panel. The format is biochemical. The conditions noted are these: duplicate, read-out: % inhibition of control values, MEK1/MAP2K1 (h). As for the experimental part:
as §3, §4, §5, §6, §7, §8

For a further test, the target named is NEK1 (h) (Homo sapiens (Human), UniProt Q96PY6). The test is described as follows: Kinase selectivity panel. The test is classed as biochemical. The settings on record: duplicate, read-out: % inhibition of control values, NEK1 (h). As for the experimental part: as §3, §4, §5, §6, §7, §8
Another test has as its target Src kinase (h) (Homo sapiens (Human), UniProt P12931). The test is described as follows: Kinase selectivity panel. The format is biochemical. The conditions noted are these: duplicate, read-out: % inhibition of control values, Src kinase (h). On the procedure: as §3, §4, §5, §6, §7, §8
The next test deals with TAOK2 (TAO1) (h) (Homo sapiens (Human), UniProt Q9UL54). The test is described as follows: Kinase selectivity panel. The format is biochemical. The conditions noted are these: duplicate, read-out: % inhibition of control values, TAOK2 (TAO1) (h). As for the experimental part: as §3, §4, §5, §6, §7, §8
The target of another test is TRKA (h) (Homo sapiens (Human), UniProt P04629). The test is described as follows: Kinase selectivity panel. The test is classed as biochemical. The conditions noted are these: duplicate, read-out: % inhibition of control values, TRKA (h). On the procedure: as §3, §4, §5, §6, §7, §8
A further test concerns the target smMLCK (h) (MYLK) (Homo sapiens (Human), UniProt Q15746). The test is described as follows: Kinase selectivity panel. The format is biochemical. The settings on record: duplicate, read-out: % inhibition of control values, smMLCK (h) (MYLK). As for the experimental part:
as §3, §4, §5, §6, §7, §8

The target of the next test is CDK2 (h) (cycA) (Homo sapiens (Human), UniProt P24941). The test is described as follows: Kinase selectivity panel and IC50 determination. The test is classed as biochemical. The conditions noted are these: 10 μM, duplicate; read-out: % inhibition of control values, CDK2 (h) (cycA). On the procedure: as §3, §4, §5, §6
(§9) Compound 1 was also assayed to determine the IC50 values for three different kinases (PCTAIRE1, DYRK1a, and CDK2) in comparison to Gsk3β. The assay was conducted with the same method described above in test I, second assay.
as §7, §8

For the next test, the target named is DYRK1a (h) (Homo sapiens (Human), UniProt Q13627). The test is described as follows: Kinase selectivity panel and IC50 determination. The settings on record: 10 μM, duplicate; read-out: % inhibition of control values, DYRK1a (h). The test is classed as biochemical. On the procedure:
as §3, §4, §5, §6, §9, §7, §8

For a further test, the target named is PCTAIRE1 kinase (h) (Homo sapiens (Human), UniProt Q00536). The test is described as follows: Kinase selectivity panel and IC50 determination. The settings on record: 10 μM, duplicate; read-out: % inhibition of control values, PCTAIRE1 kinase (h). The test is classed as biochemical. As for the experimental part: as §3, §4, §5, §6, §9, §7, §8
In test [2] the target is T1, human GSK-3β. The test is described as follows: LanthaScreen TR-FRET Eu Kinase binding and displacement assay. The settings on record: five concentrations 100 μM to 10 nM, duplicate. As for the experimental part:
as §1, §2

As usually defined, the IC50 is the midpoint of a concentration-inhibition curve.

GSK3beta (h), sequence (P49841 whole entry): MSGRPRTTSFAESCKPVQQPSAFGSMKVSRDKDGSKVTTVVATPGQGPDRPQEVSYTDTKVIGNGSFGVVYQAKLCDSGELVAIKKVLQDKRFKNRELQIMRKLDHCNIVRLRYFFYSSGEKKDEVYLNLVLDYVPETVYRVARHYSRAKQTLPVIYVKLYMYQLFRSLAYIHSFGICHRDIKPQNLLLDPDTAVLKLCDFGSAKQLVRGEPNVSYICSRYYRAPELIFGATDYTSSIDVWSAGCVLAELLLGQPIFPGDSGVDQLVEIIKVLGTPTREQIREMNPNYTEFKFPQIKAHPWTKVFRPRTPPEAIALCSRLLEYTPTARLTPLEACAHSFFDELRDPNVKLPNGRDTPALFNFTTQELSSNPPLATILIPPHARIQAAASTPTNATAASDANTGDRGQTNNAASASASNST
CDK5/p35 (h), sequence (Q00535 whole entry): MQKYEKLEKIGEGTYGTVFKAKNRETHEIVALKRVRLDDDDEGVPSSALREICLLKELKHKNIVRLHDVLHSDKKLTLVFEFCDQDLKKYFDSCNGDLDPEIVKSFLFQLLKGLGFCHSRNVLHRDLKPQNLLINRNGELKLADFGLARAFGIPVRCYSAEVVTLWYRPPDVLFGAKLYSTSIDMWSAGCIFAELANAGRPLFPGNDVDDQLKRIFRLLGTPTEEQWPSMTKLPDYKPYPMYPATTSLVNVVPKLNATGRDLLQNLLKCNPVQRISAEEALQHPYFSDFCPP
CDK5/p35 (h), sequence (Q15078 whole entry partner): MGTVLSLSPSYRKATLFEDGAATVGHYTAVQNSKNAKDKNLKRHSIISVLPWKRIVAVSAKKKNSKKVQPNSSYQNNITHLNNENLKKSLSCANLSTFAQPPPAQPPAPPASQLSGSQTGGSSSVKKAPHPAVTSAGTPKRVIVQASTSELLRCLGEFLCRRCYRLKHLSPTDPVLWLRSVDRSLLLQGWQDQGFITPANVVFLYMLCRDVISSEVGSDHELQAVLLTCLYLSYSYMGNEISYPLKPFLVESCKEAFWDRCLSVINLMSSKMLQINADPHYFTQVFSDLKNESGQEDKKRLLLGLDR
TRKA (h), sequence (P04629 33-796): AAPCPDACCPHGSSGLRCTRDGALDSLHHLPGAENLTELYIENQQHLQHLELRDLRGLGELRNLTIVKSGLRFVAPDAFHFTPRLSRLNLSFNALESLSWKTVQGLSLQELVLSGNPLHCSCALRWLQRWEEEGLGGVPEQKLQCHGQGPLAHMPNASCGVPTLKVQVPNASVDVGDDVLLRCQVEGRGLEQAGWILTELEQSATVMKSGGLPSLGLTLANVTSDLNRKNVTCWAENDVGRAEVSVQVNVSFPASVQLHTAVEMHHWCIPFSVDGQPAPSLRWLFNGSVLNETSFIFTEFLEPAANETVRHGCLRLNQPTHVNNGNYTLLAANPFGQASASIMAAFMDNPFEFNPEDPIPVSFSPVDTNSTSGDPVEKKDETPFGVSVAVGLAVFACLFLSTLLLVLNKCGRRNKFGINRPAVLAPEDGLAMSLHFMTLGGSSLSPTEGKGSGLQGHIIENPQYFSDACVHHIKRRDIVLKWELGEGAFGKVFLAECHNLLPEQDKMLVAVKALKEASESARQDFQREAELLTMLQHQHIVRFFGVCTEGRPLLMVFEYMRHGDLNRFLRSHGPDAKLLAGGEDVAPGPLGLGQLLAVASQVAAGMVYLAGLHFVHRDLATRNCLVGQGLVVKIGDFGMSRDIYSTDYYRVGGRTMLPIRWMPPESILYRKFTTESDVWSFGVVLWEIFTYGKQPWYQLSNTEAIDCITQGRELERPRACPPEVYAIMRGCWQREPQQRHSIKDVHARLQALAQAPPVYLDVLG
ERK1 (h), sequence (P27361 whole entry): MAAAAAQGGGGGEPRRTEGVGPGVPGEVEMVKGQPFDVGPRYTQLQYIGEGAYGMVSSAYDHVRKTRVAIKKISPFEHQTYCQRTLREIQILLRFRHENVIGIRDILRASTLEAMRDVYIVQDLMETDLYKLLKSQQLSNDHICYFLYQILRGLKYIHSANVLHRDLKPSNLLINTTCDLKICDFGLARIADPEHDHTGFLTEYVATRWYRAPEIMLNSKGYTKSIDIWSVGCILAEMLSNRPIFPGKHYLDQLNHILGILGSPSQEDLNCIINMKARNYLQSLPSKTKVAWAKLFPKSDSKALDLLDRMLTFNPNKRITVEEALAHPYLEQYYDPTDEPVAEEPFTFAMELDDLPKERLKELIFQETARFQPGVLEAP
ERK2 (h) (P42mapk), sequence (P28482 whole entry): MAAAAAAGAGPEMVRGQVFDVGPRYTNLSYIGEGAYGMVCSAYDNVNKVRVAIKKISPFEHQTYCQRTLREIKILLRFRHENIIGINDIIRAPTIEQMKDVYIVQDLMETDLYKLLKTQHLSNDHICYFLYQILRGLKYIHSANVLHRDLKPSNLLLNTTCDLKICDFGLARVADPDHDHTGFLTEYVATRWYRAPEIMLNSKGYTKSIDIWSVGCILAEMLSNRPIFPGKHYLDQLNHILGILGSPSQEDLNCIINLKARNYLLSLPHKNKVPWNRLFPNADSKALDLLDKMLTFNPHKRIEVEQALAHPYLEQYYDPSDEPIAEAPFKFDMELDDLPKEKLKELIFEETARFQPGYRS
T1 sequence (P49841 whole entry): as the sequence (P49841 whole entry) above
HGK (h) (MAP4K4), sequence (O95819 whole entry): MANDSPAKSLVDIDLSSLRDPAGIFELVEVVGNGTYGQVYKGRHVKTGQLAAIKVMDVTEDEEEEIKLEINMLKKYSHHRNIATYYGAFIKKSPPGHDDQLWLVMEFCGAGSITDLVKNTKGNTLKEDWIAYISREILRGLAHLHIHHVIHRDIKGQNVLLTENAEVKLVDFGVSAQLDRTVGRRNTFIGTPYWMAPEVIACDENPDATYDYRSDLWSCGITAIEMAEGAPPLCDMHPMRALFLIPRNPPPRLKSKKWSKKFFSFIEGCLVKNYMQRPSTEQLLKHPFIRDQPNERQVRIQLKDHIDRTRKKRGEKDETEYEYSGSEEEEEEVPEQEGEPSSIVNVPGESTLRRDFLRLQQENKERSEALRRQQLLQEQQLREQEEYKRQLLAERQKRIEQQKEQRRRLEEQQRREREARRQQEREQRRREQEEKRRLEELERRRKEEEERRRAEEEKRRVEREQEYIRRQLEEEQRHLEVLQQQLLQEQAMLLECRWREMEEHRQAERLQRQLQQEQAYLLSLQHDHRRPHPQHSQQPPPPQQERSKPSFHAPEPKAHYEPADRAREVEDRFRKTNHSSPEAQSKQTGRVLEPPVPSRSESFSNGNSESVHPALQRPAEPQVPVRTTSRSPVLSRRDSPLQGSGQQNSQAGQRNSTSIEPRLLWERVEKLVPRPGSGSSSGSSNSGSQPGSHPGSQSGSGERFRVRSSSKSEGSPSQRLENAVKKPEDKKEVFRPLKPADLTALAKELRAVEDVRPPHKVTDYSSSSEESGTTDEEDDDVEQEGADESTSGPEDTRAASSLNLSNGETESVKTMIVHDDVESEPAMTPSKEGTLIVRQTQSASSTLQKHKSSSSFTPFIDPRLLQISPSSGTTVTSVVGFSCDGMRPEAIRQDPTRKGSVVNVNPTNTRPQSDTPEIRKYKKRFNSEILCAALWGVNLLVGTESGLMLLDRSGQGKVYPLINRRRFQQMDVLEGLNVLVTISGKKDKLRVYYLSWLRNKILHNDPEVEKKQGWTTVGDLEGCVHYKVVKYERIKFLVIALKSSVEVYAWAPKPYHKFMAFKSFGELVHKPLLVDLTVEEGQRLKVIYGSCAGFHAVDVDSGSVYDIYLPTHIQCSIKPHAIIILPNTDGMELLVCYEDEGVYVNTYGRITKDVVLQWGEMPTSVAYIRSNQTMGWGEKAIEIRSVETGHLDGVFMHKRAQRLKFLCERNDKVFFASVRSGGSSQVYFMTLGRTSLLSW
PCTAIRE1 kinase (h), sequence (Q00536 whole entry): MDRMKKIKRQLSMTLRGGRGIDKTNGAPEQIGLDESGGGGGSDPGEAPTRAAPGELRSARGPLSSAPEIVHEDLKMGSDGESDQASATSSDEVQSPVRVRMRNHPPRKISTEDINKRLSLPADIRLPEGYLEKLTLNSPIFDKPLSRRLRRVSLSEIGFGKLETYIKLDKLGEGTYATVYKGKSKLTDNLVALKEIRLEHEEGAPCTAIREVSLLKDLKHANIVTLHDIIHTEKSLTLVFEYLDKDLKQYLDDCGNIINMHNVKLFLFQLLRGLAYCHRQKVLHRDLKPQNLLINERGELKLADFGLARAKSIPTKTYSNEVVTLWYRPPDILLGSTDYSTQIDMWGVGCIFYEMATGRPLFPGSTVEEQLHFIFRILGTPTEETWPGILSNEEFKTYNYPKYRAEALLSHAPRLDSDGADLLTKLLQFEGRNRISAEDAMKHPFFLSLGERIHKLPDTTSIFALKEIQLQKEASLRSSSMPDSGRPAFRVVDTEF
MEK1/MAP2K1 (h), sequence (Q02750 whole entry): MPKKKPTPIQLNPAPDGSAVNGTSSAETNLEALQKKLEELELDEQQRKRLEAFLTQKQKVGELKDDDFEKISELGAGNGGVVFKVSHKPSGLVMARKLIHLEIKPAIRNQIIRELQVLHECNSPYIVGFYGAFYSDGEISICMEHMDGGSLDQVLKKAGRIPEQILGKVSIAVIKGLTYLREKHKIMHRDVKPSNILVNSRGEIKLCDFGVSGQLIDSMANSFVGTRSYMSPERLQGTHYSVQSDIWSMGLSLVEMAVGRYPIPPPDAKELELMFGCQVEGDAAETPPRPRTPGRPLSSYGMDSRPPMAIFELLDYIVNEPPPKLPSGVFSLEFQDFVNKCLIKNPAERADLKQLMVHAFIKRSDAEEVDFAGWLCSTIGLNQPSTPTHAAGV

For `COC(=O)c1csc(CN2CCC(CNC(=O)c3n[nH]c4ccc(OC)cc34)CC2)n1` [Compound 7, Methyl 2-{[4-({[(5-methoxy-1H-indazol-3-yl)carbonyl]amino}methyl)piperidin-1-yl]methyl}-1,3-thiazole-4-carboxylate], the IC50 on human GSK-3β [1] stood at 130 nM. In addition, the inhibition at 10 µM is 6% on CDC2/CDK1 (h) (cycB); 21% on CDK5/p35 (h); 31% on ERK1 (h); 33% at ERK2 (h) (P42mapk); 96% at GSK3beta (h); 21% at HGK (h) (MAP4K4). For the same molecule, the inhibition at 10 µM turned out to be 0% at IRK (h) (InsR); 27% on MEK1/MAP2K1 (h); 0% on NEK1 (h); 9% at Src kinase (h); 16% on TAOK2 (TAO1) (h); 1% on TRKA (h). The inhibition at 10 µM was found to be 26% at smMLCK (h) (MYLK), 48% at CDK2 (h) (cycA), 88% at DYRK1a (h) and 2% on PCTAIRE1 kinase (h). The “Selectivity for GSK-3β compared to the other kinases of the panel” value at GSK3beta (h) is “good selectivity profile”.

As for `O=C(O)c1coc(CN2CCC(CNC(=O)c3n[nH]c4ccc(-c5cccc(F)c5F)cc34)CC2)n1` [Compound 12, 2-({4-[({[5-(2,3-Difluorophenyl)-1H-indazol-3-yl]carbonyl}amino)methyl]piperidin-1-yl}methyl)-1,3-oxazole-4-carboxylic acid hydrate], the IC50 at human GSK-3β [2] turned out to be 10 nM. In addition, the inhibition at 10 µM at CDC2/CDK1 (h) (cycB) is 77%; on CDK5/p35 (h) it was 87%; on ERK1 (h), 85%; on ERK2 (h) (P42mapk) it was 91%; at GSK3beta (h), 100%; on HGK (h) (MAP4K4), 98%. For the same molecule, the inhibition at 10 µM on IRK (h) (InsR) was determined as 0%; on MEK1/MAP2K1 (h), 86%; on NEK1 (h) it was 30%; at Src kinase (h), 15%; at TAOK2 (TAO1) (h) it was 81%; on TRKA (h) it was 5%. Further, the inhibition at 10 µM was 36% on smMLCK (h) (MYLK), 96% at CDK2 (h) (cycA), 99% at DYRK1a (h) and 42% on PCTAIRE1 kinase (h). Also, the “Selectivity for GSK-3β compared to the other kinases of the panel” value at GSK3beta (h) is “good affinity to GSK-3β when compared to most of other kinases of the same family”.
